Tests used:
MAPK p38 phosphorylation = assay: MAPK p38 Activation Assay (western blot), Panc-1; assay type: cell-based, human; details: at 10 μM, Panc-1 pancreatic cancer cell line; starred symbols = activation
Protocol: Protocol for MAPK p38 Activation Assay
This assay is referred to as the “MAPK p38 Activation Assay” throughout this application.
Cell lines: Human tumor-derived pancreatic cancer cell line Panc-1 (expressing KRas G12D mutant) was purchased from American Type Culture Collection and grown in complete DMEM-High Glucose medium, supplemented with penicillin (100 U/mL), streptomycin (100 μg/mL), and 10% heat-inactivated FBS at 37° C. in a humidified incubator with 5% CO2.
Method 1: Cells were plated at 350000 cells/well density in a 12-well plate, allowed 3 hours to adhere to the plate, then starved in the appropriate medium in the presence of 0.5% FBS overnight. The small molecules to be tested were added to the cells in the final concentration of 10 μM in the presence of 0.3% DMSO for 6 hours incubation at 37° C. For IC50 value determination, serial dilutions of compounds were added to cells under the same conditions. Next, cells were stimulated with 1.5 ng/ml EGF for 15 minutes then cells were lysed with lysis buffer containing 1% Triton X-100, EDTA, and Halt™ Protease & Phosphatase Inhibitor Cocktail (Thermo Scientific). Protein concentration was assessed by BCA protein assay (Thermo Scientific). Phosphorylation level of MAPK p38 was determined by western blot.
Method 2: Cells were plated at 350000 cells/well density in a 12-well plate in 10% FBS. The next day small molecules to be tested were added to the cells in the final concentration of 10 μM in the presence of 0.3% DMSO for 6 hours incubation at 37° C. For IC50 value determination, serial dilutions of compounds were added to cells under the same conditions. Next, cells were lysed with lysis buffer containing 1% Triton X-100, EDTA, and Halt™ Protease & Phosphatase Inhibitor Cocktail (Thermo Scientific). Protein concentration was assessed by BCA protein assay (Thermo Scientific). Phosphorylation level of MAPK p38 was determined by western blot.
Western blot protocol: Equal amounts of protein (15-50 μg) were separated by SDS-PAGE and transferred to nitrocellulose membranes (Invitrogen by Thermo Fisher Scientific). The membrane was stained with Ponceau S Stain (Boston BioProducts) to verify uniform protein loading. Membranes were blocked with 10% milk and phosphorylation levels of MAPK p38 were assessed by incubating overnight at 4° C. with the following antibody: Phospho-p38 MAPK (Thr180/Tyr182), from Cell Signaling Technology. Then the membranes were incubated with HRP-conjugated secondary antibody (Jackson Immunoresearch, West Grove, PA). Bands were incubated in Amersham ECL Prime Western Blotting Detection Reagent (GE Healthcare) and visualized using the ChemiDoc MP imaging system (Bio-Rad).

[1] = tested on: Smad2/Smad3 phosphorylation; assay: Phospho-Smad2/3 Inhibition Assay (western blot), Panc-1; assay type: cell-based, human; details: at 10 μM, Panc-1 pancreatic cancer cell line; starred symbols = activation
Procedure, shortened: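 Panc-1 cells (KRas G12D), starved overnight in 0.5% FBS, treated 3 h at 37° C with compound at 10 μM final (0.3% DMSO) or serial dilutions for IC50, then stimulated with 10 ng/ml TGF-b1 for 1 h. Phospho-Smad2 (Ser465/467) and phospho-Smad3 (Ser423/425) detected by western blot.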

| SMILES | % inh of MAPK p38 in Panc-1 (MAPK p38 phosphorylation) | % inh of Smad2/3 phosphorylation in Panc-1 [1] |
| --- | --- | --- |
| CO[C@H]1C[C@@H](Nc2nc(-c3nccn3C)nn3cc(-c4ccncc4)c(-c4ccccc4)c23)C1 [Compound 198, N-((1s,3s)-3-Methoxycyclobutyl)-2-(1-methyl-1H-imidazol-2-yl)-5-phenyl-6-(pyridin-4-yl)pyrrolo[2,1-f][1,2,4]triazin-4-amine] | E (E = 1-30% inhibition) | A (A = 1-25% inhibition) |
| COCCNC(=O)c1c(-c2ccn(C)n2)cn2nc(-c3nccn3C)nc(N[C@H]3CC[C@H](OC)C3)c12 (racemic) [Compound 183, rac 4-(((1S,3S)-3-Methoxycyclo-pentyl)amino)-N-(2-methoxyethyl)-2-(1-methyl-1H-imidazol-2-yl)-6-(1-methyl-1H-pyrazol-3-yl)pyrrolo[2,1-f][1,2,4]triazine-5-carboxamide] |  | D* (D* = 76-100% activation) |
| COc1cccc(-c2cn3nc(-c4nccn4C)nc(N[C@H]4C[C@H](OC)C4)c3c2-c2ccccc2)c1OC [Compound 219, 6-(2,3-Dimethoxyphenyl)-N-((1r,3r)-3-methoxycyclobutyl)-2-(1-methyl-1H-imidazol-2-yl)-5-phenylpyrrolo[2,1-f][1,2,4]triazin-4-amine] |  | D (D = 76-100% inhibition) |
| COc1cnc(Nc2nc(-c3nccn3C)nn3cc(-c4ccn(C)n4)c(C)c23)cc1C [Compound 236, N-(5-Methoxy-4-methylpyridin-2-yl)-5-methyl-2-(1-methyl-1H-imidazol-2-yl)-6-(1-methyl-1H-pyrazol-3-yl)pyrrolo[2,1-f][1,2,4]triazin-4-amine] |  | 0 (0 = 0% inhibition) |
| Cc1c(-c2ccn(C)n2)cn2nc(-c3nccn3C)nc(Nc3cc(N4CCOCC4)ccn3)c12 [Compound 222, 5-Methyl-2-(1-methyl-1H-imidazol-2-yl)-6-(1-methyl-1H-pyrazol-3-yl)-N-(4-morpholinopyridin-2-yl)pyrrolo[2,1-f][1,2,4]triazin-4-amine] |  | A* (A* = 1-25% activation) |
| Cc1cnc2c(c1)CCN2c1nc(-c2nccn2C)nn2cc(-c3ccn(C)n3)c(C)c12 [Compound 239, 5-Methyl-2-(1-methyl-1H-imidazol-2-yl)-6-(1-methyl-1H-pyrazol-3-yl)-4-(5-methyl-2,3-dihydro-1H-pyrrolo[2,3-b]pyridin-1-yl)pyrrolo[2,1-f][1,2,4]triazine] |  | 0 (0 = 0% inhibition) |
| COc1cc(Nc2nc(-c3nccn3C)nn3cc(-c4ccn(C)n4)c(C)c23)ncc1C1CC1 [Compound 238, N-(5-Cyclopropyl-4-methoxypyridin-2-yl)-5-methyl-2-(1-methyl-1H-imidazol-2-yl)-6-(1-methyl-1H-pyrazol-3-yl)pyrrolo[2,1-f][1,2,4]triazin-4-amine] |  | 0 (0 = 0% inhibition) |
| COc1cc(Nc2nc(-c3nccn3C)nn3cc(-c4cccnc4)c(-c4cccnc4)c23)ncn1 [Compound 170, N-(6-Methoxypyrimidin-4-yl)-2-(1-methyl-1H-imidazol-2-yl)-5,6-di(pyridin-3-yl)pyrrolo[2,1-f][1,2,4]triazin-4-amine] |  | A (A = 1-25% inhibition) |
| COc1ccnc(N(C)c2nc(-c3nccn3C)nn3cc(-c4ccn(C)n4)c(C)c23)c1 [Compound 223, N-(4-Methoxypyridin-2-yl)-N,5-dimethyl-2-(1-methyl-1H-imidazol-2-yl)-6-(1-methyl-1H-pyrazol-3-yl)pyrrolo[2,1-f][1,2,4]triazin-4-amine] |  | B (B = 26-45% inhibition) |
| COc1ccnc(Nc2nc(-c3nccn3C)nn3cc(-c4ccn(C)n4)c(C(=O)N4CCCC4)c23)c1 [Compound 178, (4-((4-Methoxypyridin-2-yl)amino)-2-(1-methyl-1H-imidazol-2-yl)-6-(1-methyl-1H-pyrazol-3-yl)pyrrolo[2,1-f][1,2,4]triazin-5-yl)(pyrrolidin-1-yl)methanone] |  | B* (B* = 26-45% activation) |
| Cc1c(-c2ccn(C)n2)cn2nc(-c3nccn3C)nc(O)c12 [Compound 172, 5-Methyl-2-(1-methyl-1H-imidazol-2-yl)-6-(1-methyl-1H-pyrazol-3-yl)pyrrolo[2,1-f][1,2,4]triazin-4-ol] |  | A (A = 1-25% inhibition) |
| CO[C@H]1CC[C@H](Nc2nc(-c3nccn3C)nn3cc(-c4ccn(C)n4)c(C(=O)NCC(F)(F)F)c23)C1 (racemic) [Compound 181, 4-(((1S,3S)-3-Methoxycyclopentyl)amino)-2-(1-methyl-1H-imidazol-2-yl)-6-(1-methyl-1H-pyrazol-3-yl)-N-(2,2,2-trifluoroethyl)pyrrolo[2,1-f][1,2,4]triazine-5-carboxamide] |  | A (A = 1-25% inhibition) |
| Cc1c(-c2ccn(C)n2)cn2nc(-c3nccn3C)nc(Nc3ccc(-n4ccnc4C)cn3)c12 [Compound 243, 5-Methyl-N-(5-(2-methyl-1H-imidazol-1-yl)pyridin-2-yl)-2-(1-methyl-1H-imidazol-2-yl)-6-(1-methyl-1H-pyrazol-3-yl)pyrrolo[2,1-f][1,2,4]triazin-4-amine] |  | A* (A* = 1-25% activation) |
| COCCNC(=O)c1c(-c2ccn(C)n2)cn2nc(-c3nccn3C)nc(Nc3cc(OC)ccn3)c12 [Compound 176, N-(2-Methoxyethyl)-4-((4-methoxypyridin-2-yl)amino)-2-(1-methyl-1H-imidazol-2-yl)-6-(1-methyl-1H-pyrazol-3-yl)pyrrolo[2,1-f][1,2,4]triazine-5-carboxamide] |  | B (B = 26-45% inhibition) |
| COc1ccnc(Nc2nc(-c3nccn3C)nn3cc(-c4ccn(C)n4)c(C(=O)N4CCOCC4)c23)c1 [Compound 179, (4-((4-Methoxypyridin-2-yl)amino)-2-(1-methyl-1H-imidazol-2-yl)-6-(1-methyl-1H-pyrazol-3-yl)pyrrolo[2,1-f][1,2,4]triazin-5-yl)(morpho-lino)methanone] |  | C* (C* = 46-75% activation) |
| Cn1ccnc1-c1nc(O)c2c(-c3ccccc3)c(-c3cccnc3)cn2n1 [Compound 189, 2-(1-Methyl-1H-imidazol-2-yl)-5-phenyl-6-(pyridin-3-yl)pyrrolo[2,1-f][1,2,4]triazin-4-ol] |  | B (B = 26-45% inhibition) |
| Cc1c(-c2ccn(C)n2)cn2nc(-c3nccn3C)nc(Nc3ccc(C(F)(F)F)cn3)c12 [Compound 233, 5-Methyl-2-(1-methyl-1H-imidazol-2-yl)-6-(1-methyl-1H-pyrazol-3-yl)-N-(5-(trifluoromethyl)pyridin-2-yl)pyrrolo[2,1-f][1,2,4]triazin-4-amine] |  | B (B = 26-45% inhibition) |
| COc1ccnc(Nc2nc(-c3nccn3C)nn3cc(-c4ccn(C)n4)c(C(=O)NCCN(C)C)c23)c1 [Compound 177, N-(2-(Dimethylamino)ethyl)-4-((4-methoxypyridin-2-yl)amino)-2-(1-methyl-1H-imidazol-2-yl)-6-(1-methyl-1H-pyrazol-3-yl)pyrrolo[2,1-f][1,2,4]triazine-5-carboxamide] |  | A (A = 1-25% inhibition) |
| COc1ccnc(Nc2nc(-c3nccn3CCNC(=O)CCCC[C@H]3SC[C@H]4NC(=O)N[C@H]43)nn3cc(-c4ccn(C)n4)c(C)c23)c1 [Compound 216, N-(2-(2-(4-((4-methoxypyridin-2-yl)amino)-5-methyl-6-(1-methyl-1H-pyrazol-3-yl)pyrrolo[2,1-f][1,2,4]triazin-2-yl)-1H-imidazol-1-yl)ethyl)-5-((3aR,4R,6aS)-2-oxohexahydro-1H-thieno[3,4-d]imidazol-4-yl)pentanamide] |  | C* (C* = 46-75% activation) |
